Experiments:
Assay type in all cases: in vivo
barnyardgrass [1] = assay: Test Example 1: herbicidal effects in preemergence treatment under submerged conditions; details: dose 2.52 g/a
In short: (§1)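 Weed seeds and 2.5-leaf rice seedlings shared each flooded cup of alluvial soil. Dosing, expressed as g per are, was by pouring water-diluted emulsifiable concentrate onto the surface on sowing day. Mortality was graded 0 to 5 after three weeks' growth.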

bulrush [2] = assay: as above; details: dose 2.52 g/a
In short: as §1

ducksalad [3] = assay: as above; details: dose 2.52 g/a
In short: as §1

transplanted rice = assay: Test Example 1: preemergence treatment under submerged conditions, effect on crop; details: dose 2.52 g/a
In short: as §1

barnyardgrass [4] = assay: Test Example 2: herbicidal effects during the vegetation period under submerged conditions; details: treatment during the vegetation period under submerged conditions; dose 2.52 g/a
In short: (§2)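 Barnyardgrass, bulrush and ducksalad were co-sown in alluvial soil flooded to 4 cm and grown in a greenhouse at 25 to 30° C. At the 1- or 2-leaf stage, water-diluted emulsifiable concentrates went onto the water surface at set doses (g/a). Herbicidal effect was scored three weeks later on a graded scale.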

bulrush [5] = assay: as above; details: treatment during the vegetation period under submerged conditions; dose 2.52 g/a
In short: as §2

ducksalad [6] = assay: as above; details: treatment during the vegetation period under submerged conditions; dose 2.52 g/a
In short: as §2

Italian ryegrass [7] = assay: Test Example 3: herbicidal effects in soil treatment; details: dose 6.3 g/a
In short: (§3)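 Seeds were sown in sterilized diluvial soil and covered with about 1.5 cm of soil. Compounds, formulated as emulsifiable concentrates and diluted with water, were sprayed evenly over the soil surface at set doses in g/a. Herbicidal effect was scored on a rating scale three weeks later.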

barnyardgrass [8] = assay: as above; details: dose 6.3 g/a
In short: as §3

common lambsquater [9] = assay: as above; details: dose 6.3 g/a
In short: as §3

common ragweed [10] = assay: as above; details: dose 6.3 g/a
In short: as §3

giant foxtail [11] = assay: as above; details: dose 6.3 g/a
In short: as §3

large crabgrass [12] = assay: as above; details: dose 6.3 g/a
In short: as §3

redroot pigweed [13] = assay: as above; details: dose 6.3 g/a
In short: as §3

water foxtail [14] = assay: as above; details: dose 6.3 g/a
In short: as §3

wild oat [15] = assay: as above; details: dose 6.3 g/a
In short: as §3

Italian ryegrass [16] = assay: Test Example 4: herbicidal effect in foliage treatment; details: dose 6.3 g/a, three weeks after application
In short: (§4)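 Weeds and crops sown in sterilized diluvial soil under ~1.5 cm cover and grown in greenhouse at 25 to 30° C. At 14 days, water-diluted emulsifiable concentrate sprayed onto foliage at set doses (g/a); herbicidal effect scored on a rating scale three weeks after application.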

barnyardgrass [17] = assay: as above; details: dose 6.3 g/a, three weeks after application
In short: as §4

beadstraw = assay: as above; details: dose 6.3 g/a, three weeks after application
In short: as §4

common chickweed [18] = assay: as above; details: dose 6.3 g/a, three weeks after application
In short: as §4

common lambsquater [19] = assay: as above; details: dose 6.3 g/a, three weeks after application
In short: as §4

common ragweed [20] = assay: as above; details: dose 6.3 g/a, three weeks after application
In short: as §4

giant foxtail [21] = assay: as above; details: dose 6.3 g/a, three weeks after application
In short: as §4

large crabgrass [22] = assay: as above; details: dose 6.3 g/a, three weeks after application
In short: as §4

redroot pigweed [23] = assay: as above; details: dose 6.3 g/a, three weeks after application
In short: as §4

water foxtail [24] = assay: as above; details: dose 6.3 g/a, three weeks after application
In short: as §4

wild oat [25] = assay: as above; details: dose 6.3 g/a, three weeks after application
In short: as §4

common chickweed [26] = assay: Test Example 3: herbicidal effects in soil treatment; details: dose 6.3 g/a
In short: as §3

Compound	A: barnyardgrass, herbicidal effect (evaluation scale 0-5) (barnyardgrass [1])	B: bulrush, herbicidal effect (evaluation scale 0-5) (bulrush [2])	C: ducksalad, herbicidal effect (evaluation scale 0-5) (ducksalad [3])	A: barnyardgrass, herbicidal effect (evaluation scale 0-5) (barnyardgrass [4])	B: bulrush, herbicidal effect (evaluation scale 0-5) (bulrush [5])	C: ducksalad, herbicidal effect (evaluation scale 0-5) (ducksalad [6])	H: Italian ryegrass, herbicidal effect (evaluation scale 0-5) (Italian ryegrass [7])	A: barnyardgrass, herbicidal effect (evaluation scale 0-5) (barnyardgrass [8])	L: common lambsquater, herbicidal effect (evaluation scale 0-5) (common lambsquater [9])	J: common ragweed, herbicidal effect (evaluation scale 0-5) (common ragweed [10])	E: giant foxtail, herbicidal effect (evaluation scale 0-5) (giant foxtail [11])	D: large crabgrass, herbicidal effect (evaluation scale 0-5) (large crabgrass [12])	G: water foxtail, herbicidal effect (evaluation scale 0-5) (water foxtail [14])	F: wild oat, herbicidal effect (evaluation scale 0-5) (wild oat [15])	H: Italian ryegrass, herbicidal effect (Italian ryegrass [16])	A: barnyardgrass, herbicidal effect (barnyardgrass [17])	O: beadstraw, herbicidal effect (beadstraw)	N: common chickweed, herbicidal effect (common chickweed [18])	L: common lambsquater, herbicidal effect (common lambsquater [19])	J: common ragweed, herbicidal effect (common ragweed [20])	further results
CC1CC(=O)N(Cc2ccccc2N(C(=O)c2ccccc2)S(=O)(=O)C(F)(F)F)CO1 (centres unmarked) [II-6]	5 (mortality of 90% or above (nearly complete death))	5 (mortality of 90% or above (nearly complete death))	5 (mortality of 90% or above (nearly complete death))	5 (mortality of 90% or above (nearly complete death))	5 (mortality of 90% or above (nearly complete death))	4 (mortality of at least 70% and less than 90%)	3 (mortality of at least 40% and less than 70%)	5 (mortality of 90% or above (nearly complete death))	3 (mortality of at least 40% and less than 70%)	4 (mortality of at least 70% and less than 90%)	4 (mortality of at least 70% and less than 90%)	4 (mortality of at least 70% and less than 90%)	5 (mortality of 90% or above (nearly complete death))	0 (mortality of less than 5% (almost ineffective))	3 (mortality of at least 40% and less than 70%)	5 (mortality of 90% or above (nearly complete death))	2 (mortality of at least 20% and less than 40%)	1 (mortality of at least 5% and less than 20%)	1 (mortality of at least 5% and less than 20%)	5 (mortality of 90% or above (nearly complete death))	a: transplanted rice, effect on crop (evaluation scale 0-5) (transplanted rice): 0 (mortality of less than 5% (almost ineffective)); K: redroot pigweed, herbicidal effect (evaluation scale 0-5) (redroot pigweed [13]): 0 (mortality of less than 5% (almost ineffective)); E: giant foxtail, herbicidal effect (giant foxtail [21]): 4 (mortality of at least 70% and less than 90%); D: large crabgrass, herbicidal effect (large crabgrass [22]): 4 (mortality of at least 70% and less than 90%); K: redroot pigweed, herbicidal effect (redroot pigweed [23]): 0 (mortality of less than 5% (almost ineffective)); G: water foxtail, herbicidal effect (water foxtail [24]): 5 (mortality of 90% or above (nearly complete death)); F: wild oat, herbicidal effect (wild oat [25]): 0 (mortality of less than 5% (almost ineffective))
CC1(C)CC(=O)N(Cc2ccccc2N(C(=O)C2CC2)S(=O)(=O)C(F)(F)F)CO1 [II-20]	5 (mortality of 90% or above (nearly complete death))	5 (mortality of 90% or above (nearly complete death))	5 (mortality of 90% or above (nearly complete death))	5 (mortality of 90% or above (nearly complete death))	5 (mortality of 90% or above (nearly complete death))	5 (mortality of 90% or above (nearly complete death))	5 (mortality of 90% or above (nearly complete death))	5 (mortality of 90% or above (nearly complete death))	0 (mortality of less than 5% (almost ineffective))	4 (mortality of at least 70% and less than 90%)	4 (mortality of at least 70% and less than 90%)	4 (mortality of at least 70% and less than 90%)	5 (mortality of 90% or above (nearly complete death))	0 (mortality of less than 5% (almost ineffective))	4 (mortality of at least 70% and less than 90%)	5 (mortality of 90% or above (nearly complete death))	4 (mortality of at least 70% and less than 90%)	3 (mortality of at least 40% and less than 70%)	0 (mortality of less than 5% (almost ineffective))	5 (mortality of 90% or above (nearly complete death))	N: common chickweed, herbicidal effect (evaluation scale 0-5) (common chickweed [26]): 4 (mortality of at least 70% and less than 90%); K: redroot pigweed, herbicidal effect (evaluation scale 0-5) (redroot pigweed [13]): 0 (mortality of less than 5% (almost ineffective)); E: giant foxtail, herbicidal effect (giant foxtail [21]): 5 (mortality of 90% or above (nearly complete death)); D: large crabgrass, herbicidal effect (large crabgrass [22]): 5 (mortality of 90% or above (nearly complete death)); K: redroot pigweed, herbicidal effect (redroot pigweed [23]): 0 (mortality of less than 5% (almost ineffective)); G: water foxtail, herbicidal effect (water foxtail [24]): 5 (mortality of 90% or above (nearly complete death)); F: wild oat, herbicidal effect (wild oat [25]): 0 (mortality of less than 5% (almost ineffective))
CCOC(=O)N(c1ccccc1CN1COC(C)(C)CC1=O)S(=O)(=O)C(F)(F)F [II-23, 6,6-dimethyl-3-[2-(N-ethoxycarbonyl-N-trifluoromethanesulfonyl)aminobenzyl]-1,3-oxazinan-4-one]	5 (mortality of 90% or above (nearly complete death))	5 (mortality of 90% or above (nearly complete death))	5 (mortality of 90% or above (nearly complete death))	5 (mortality of 90% or above (nearly complete death))	5 (mortality of 90% or above (nearly complete death))	5 (mortality of 90% or above (nearly complete death))	4 (mortality of at least 70% and less than 90%)	5 (mortality of 90% or above (nearly complete death))	2 (mortality of at least 20% and less than 40%)	5 (mortality of 90% or above (nearly complete death))	5 (mortality of 90% or above (nearly complete death))	5 (mortality of 90% or above (nearly complete death))	5 (mortality of 90% or above (nearly complete death))	0 (mortality of less than 5% (almost ineffective))	4 (mortality of at least 70% and less than 90%)	5 (mortality of 90% or above (nearly complete death))	5 (mortality of 90% or above (nearly complete death))	4 (mortality of at least 70% and less than 90%)	4 (mortality of at least 70% and less than 90%)	5 (mortality of 90% or above (nearly complete death))	a: transplanted rice, effect on crop (evaluation scale 0-5) (transplanted rice): 0 (mortality of less than 5% (almost ineffective)); N: common chickweed, herbicidal effect (evaluation scale 0-5) (common chickweed [26]): 4 (mortality of at least 70% and less than 90%); E: giant foxtail, herbicidal effect (giant foxtail [21]): 4 (mortality of at least 70% and less than 90%); D: large crabgrass, herbicidal effect (large crabgrass [22]): 5 (mortality of 90% or above (nearly complete death)); G: water foxtail, herbicidal effect (water foxtail [24]): 5 (mortality of 90% or above (nearly complete death)); F: wild oat, herbicidal effect (wild oat [25]): 0 (mortality of less than 5% (almost ineffective))
